Source: patent US6492328B2, “Novispirins: antimicrobial peptides” (priority 2000, dated 2002)
Read-outs that look alike come from different tables or passages of the source. Where no end group is shown, it is not given here.

Key:
C. trachomatis serovar E = test: McCoy cell shell vial assay, inclusion-forming units; assay type: cell-based, Chlamydia trachomatis; details: 100 μg/ml, pre-incubation assays
Method: (§1) C. trachomatis serovar L2 causes invasive LGV, whereas serovars D and E represent typical genital strains. The effect of G-10 on Chlamydia trachomatis serovars (L2, D and E) was determined using standard and modified McCoy cell shell vial assays and varying concentrations of peptide. In the standard assay, the Chlamydia/peptide mixture was pre-incubated for 2 hr., then removed from the host cell monolayer before the 48-hr. incubation. In the modified assay, the pre-incubation mixture was left on the monolayer for the 48 hr. incubation. In a third assay, G-10 and Chlamydia were mixed and infected to cell monolayers without pre-incubation, and examined after 48 hr. Inclusion-forming units (IFUs) were scored to measure the peptide's inhibitory effect.

S. maltophilia 36CN = test: Novispirins vs S. maltophilia (Table 5); assay type: cell-based, Stenotrophomonas maltophilia; design: unit not given here; details: strain 36CN
Method: (§2) Microorganisms used in this study included 13 different Pseudomonas aeruginosa strains. The AML-654 and LZ-1 strains are recent clinical isolates from the UCLA Clinical Microbiology laboratory. Nine strains (5 mucoid, 4 nonmucoid) were recent CF isolates provided by Dr. Lisa Saiman. All of the P. aeruginosa strains except PAO-1 strain were resistant to multiple conventional antibiotics, and all 9 CF isolates were resistant to 250 μg/ml of tobramycin. We have also tested 5 strains each of Stenotrophomonas maltophilia and Burkholderia cepacia from CF patients (also provided by Dr. Lisa Saiman), two strains of Escherichia coli (ML-35p and DH-5a), and single strains of Staphylococcus aureus[MRSA (methicillin-resistant S. aureus)] and C. albicans.

S. maltophilia 18CP = test: Novispirins vs S. maltophilia (Table 5); assay type: cell-based, Stenotrophomonas maltophilia; design: unit not given here; details: strain 18CP
Method: as §2

S. maltophilia 47CG = test: Novispirins vs S. maltophilia (Table 5); assay type: cell-based, Stenotrophomonas maltophilia; design: unit not given here; details: strain 47CG
Method: as §2

S. maltophilia 42CK = test: Novispirins vs S. maltophilia (Table 5); assay type: cell-based, Stenotrophomonas maltophilia; design: unit not given here; details: strain 42CK
Method: as §2

S. maltophilia 51Cl = test: Novispirins vs S. maltophilia (Table 5); assay type: cell-based, Stenotrophomonas maltophilia; design: unit not given here; details: strain 51Cl
Method: as §2

[1] = Acute toxicity studies in mice, intravenous; assay type: in vivo
Method: In vivo toxicity. Acute toxicity studies were performed in mice. 3/3 mice survived an intravenous dose of 10 mg novispirin G10/kg body weight, and 1/3 survived a dose of 20 mg/kg.

K. pneumoniae = test: Two stage radial diffusion assay with 10 mM HEPES, G10 variants (Table 8); assay type: cell-based; details: mean ± SEM, n = 3, in µg/mL
Excerpt: (§3) Amidation (—NH2) of the carboxy terminus in some of the novispirin G10 variants was designed to increase overall positive charge. The sequences of these peptides and their net charge is shown below in Table 7. The fractional (and pH dependent) charge on histidine12 was ignored in this calculation.
(§4) In Table 8, MIC signifies minimal inhibitory concentration, as determined by two stage radial diffusion assays. […] Shaded boxes show results that represent a significant improvement of activity (p<0.01 by t-test), relative to novispirin G10. […] None of the above G10 novispirin derivatives caused any hemolysis of human red blood cells, even when tested at 80 μg/ml. It is likely that other cationic amino acids (e.g., lysine, ornithine, etc) could also be used in position 12 to achieve better activity in the presence of calcium and magnesium ions.

E. coli = test: as above; assay type: cell-based; details: mean ± SEM, n = 3, in µg/mL
Excerpt: as §3, §4

S. aureus = test: as above; assay type: cell-based; details: mean ± SEM, n = 3, in µg/mL
Excerpt: as §3, §4

P. aeruginosa = test: as above; assay type: cell-based; details: mean ± SEM, n = 3, in µg/mL
Excerpt: as §3, §4

C. trachomatis serovar D = test: McCoy cell shell vial assay, inclusion-forming units; assay type: cell-based, Chlamydia trachomatis; design: dose or concentration left out as unconfirmed
Method: as §1

[2] = system: C. trachomatis serovar L2; test: as above; assay type: cell-based, Chlamydia trachomatis; design: dose or concentration left out as unconfirmed
Method: as §1

E. coli ML 35P [3] = assay type: cell-based, Escherichia coli; details: mean ± SEM, n = 3
Method: Antimicrobial activity. Several different methods were used to examine the antimicrobial properties of novispirins, including: a) two-stage radial diffusion assays; b) colony counting assays; and c) standard microbroth dilution assays.
Antimicrobial activity was tested in media with low, normal or high salinity. In radial diffusion assays, this was accomplished by using a low salt “basic medium” containing 0.3 mg of trypticase soy broth powder/ml of 10 mM sodium phosphate buffer, pH 7.4. Media with “normal” or “high” salinity were prepared by supplementing the basic medium with 100 mM NaCl to obtain media with normal salinity, or with 175-200 mM NaCl to obtain high salt media. Retention of activity against P. aeruginosa in high salt media is important because airway fluids from cystic fibrosis patients are reported to show hypersalinity, and other sites—including skin surfaces surfaces and the urinary bladder—may have locally high salt concentrations.
The relative activities of ovispirin and the novispirins against two organisms, E. coli and a multi-resistant strain of P. aeruginosa, are shown in FIG. 1. The MICs were obtained by radial diffusion assays performed under low, normal, and high salt conditions (which are denoted along the X-axis as 0, 100 and 200 mM NaCl, respectively).
Table 1 compares the activity of novispirins against these Gram-negative bacteria with its activity against Listeria monocytogenes, Staphylococcus aureus and C. albicans. […] Note that novispirins show activity against these Gram-positive bacteria when tested in physiological (100 mM NaCl) salt concentrations, and also that Novispirin G10 is quite active against C. albicans. Although neither ovispirin nor novispirins retained activity against C. albicans or the Gram positives under very high salt conditions (200 mM NaCl), they remained active against the Gram-negatives under these conditions. Consequently, even if the airways' NaCl concentrations are exceptionally high in CF patients, this factor will not impair the ability of ovispirin or novispirins to kill P. aeruginosa.

[4] = system: MRC-5 human lung fibroblasts; assay type: cell-based
Excerpt: FIG. 5 compares the cytotoxicity of these peptides for MRC-5 human lung fibroblasts.

human red blood cells = assay type: cell-based
Method: Hemolytic Activity: This was tested by incubating various concentrations of peptide with a suspension (2.8% v/v) of washed human, murine, sheep or bovine red cells in PBS. After 30 min at 37C, the tubes were centrifuged and the percentage of total hemoglobin released to the supernatant was measured.
Similar results were obtained with murine red blood cells. In contrast, none of these peptides were appreciably hemolytic towards sheep or bovine red blood cells.

E. coli ML 35P [5] = details: ML 35P
Excerpt: Effect of serum. […] Because serum can be present in an inflammatory focus or exudate, the ability to function in the presence of serum would be a desirable property.
In these experiments, the underlay gel contained 60% RPMI-1640, ±2.5 or 20% normal human serum (NHS). The remainder of the solution was phosphate-buffered saline

[6] = Very high salinity (+200 mM NaCl)

KNLRRIIRKGIHIIKKYG-OH [G10 Novispirin, K N L R R I I R K G I H I I K K Y G]
inhibition of C. trachomatis serovar E (C. trachomatis serovar E): completely inhibited | activity vs S. maltophilia (S. maltophilia 36CN; +100 mM NaCl): 0.29 | activity vs S. maltophilia (S. maltophilia 36CN; +175 mM NaCl): 0.36 | activity vs S. maltophilia (S. maltophilia 36CN; LOW SALT CONDITIONS): 0.15 | activity vs S. maltophilia (S. maltophilia 18CP; +100 mM NaCl): 0.70 | activity vs S. maltophilia (S. maltophilia 18CP; +175 mM NaCl): 1.30 | activity vs S. maltophilia (S. maltophilia 18CP; LOW SALT CONDITIONS): 0.40 | activity vs S. maltophilia (S. maltophilia 47CG; +100 mM NaCl): 0.68 | activity vs S. maltophilia (S. maltophilia 47CG; +175 mM NaCl): 0.63 | activity vs S. maltophilia (S. maltophilia 47CG; LOW SALT CONDITIONS): 0.08 | activity vs S. maltophilia (S. maltophilia 42CK; +100 mM NaCl): 0.67 | activity vs S. maltophilia (S. maltophilia 42CK; +175 mM NaCl): 10.0 | activity vs S. maltophilia (S. maltophilia 42CK; LOW SALT CONDITIONS): 0.43 | activity vs S. maltophilia (S. maltophilia 51Cl; +100 mM NaCl): 3.57 | activity vs S. maltophilia (S. maltophilia 51Cl; +175 mM NaCl): 8.18 | activity vs S. maltophilia (S. maltophilia 51Cl; LOW SALT CONDITIONS): 0.45 | peak level ([1]; 10 mg/kg dose, if blood volume of a mouse is 5% of its mass): approximately 200 micrograms/ml | mice survived ([1]; intravenous dose of 10 mg/kg body weight): 3/3 | mice survived ([1]; intravenous dose of 20 mg/kg): 1/3 | MIC (K. pneumoniae; +1 mM Ca): >250 | MIC (K. pneumoniae; +1 mM Mg): >250 | MIC (K. pneumoniae; No Ca/Mg): 0.17 ± 0.03 | MIC (E. coli; +1 mM Ca): 21.2 ± 0.36 | MIC (E. coli; +1 mM Mg): 20.3 ± 0.1 | MIC (E. coli; No Ca/Mg): 0.09 ± 0.02 | MIC (S. aureus; +1 mM Ca): 99.0 ± 5.7 | MIC (S. aureus; +1 mM Mg): >79 | MIC (S. aureus; No Ca/Mg): 22.7 ± 2.1 | MIC (P. aeruginosa; +1 mM Ca): >250 | MIC (P. aeruginosa; +1 mM Mg): >250 | MIC (P. aeruginosa; No Ca/Mg): 0.17 ± 0.04 | serovar D IFUs reduced (C. trachomatis serovar D): 99.4-100% | serovar L2 IFUs reduced [2]: 92.7-99.1% | MIC (E. coli ML 35P [3]; Low Salt (+0 mM NaCl)): 0.1 ± 0.0 µg/mL | MIC (E. coli ML 35P [3]; Normal salinity (+100 mM NaCl)): 0.1 ± 0.0 µg/mL | MIC (E. coli ML 35P [3]; [6]): 1.8 ± 0.8 µg/mL | cytotoxicity for MRC-5 human lung fibroblasts [4]: virtually devoid of cytotoxicity | hemolytic activity for human red blood cells (human red blood cells): nonhemolytic

KNLRRIIRKIIHIIKKYG [Ovispirin, K N L R R I I R K I I H I I K K Y G]
MIC (E. coli ML 35P [5]): 1.7 µg/mL | MIC (E. coli ML 35P [3]; Low Salt (+0 mM NaCl)): 0.7 ± 0.0 µg/mL | MIC (E. coli ML 35P [3]; Normal salinity (+100 mM NaCl)): 0.7 ± 0.1 µg/mL | MIC (E. coli ML 35P [3]; [6]): 1.5 ± 0.6 µg/mL | hemolytic activity for human red blood cells (human red blood cells): about as hemolytic for human red blood cells as protegrin PG-1

KNLRRIIRKTIHIIKKYG [T10 Novispirin, K N L R R I I R K T I H I I K K Y G]
MIC (E. coli ML 35P [3]; Low Salt (+0 mM NaCl)): 0.5 ± 0.2 µg/mL | MIC (E. coli ML 35P [3]; Normal salinity (+100 mM NaCl)): 0.3 ± 0.2 µg/mL | MIC (E. coli ML 35P [3]; [6]): 2.7 ± 1.1 µg/mL | cytotoxicity for MRC-5 human lung fibroblasts [4]: virtually devoid of cytotoxicity
